# According to ChEMBL document CHEMBL3132769, “Fragment growing to retain or alter the selectivity of anchored kinase hinge-binding fragments” (Medchemcomm, 2014):
# What was measured:
# [1] = system: Tyrosine-protein kinase ABL1 (Homo sapiens), P00519 [H396P]; assay: Inhibition of human truncated ABL H396P mutant expressed in baculovirus assessed as substrate phosphorylation using fluorescence-labelled peptides as substrate at 0.06 uM after 90 mins by microfluidic peptide phosphorylation assay
# [2] = biological target: Tyrosine-protein kinase HCK (Homo sapiens) (UniProt P08631); assay: Inhibition of human HCK catalytic domain expressed in baculovirus assessed as substrate phosphorylation using fluorescence-labelled peptides as substrate at 0.2 uM after 90 mins by microfluidic peptide phosphorylation assay
# Tyrosine-protein kinase HCK (Homo sapiens), sequence (P08631 2-526 limits assumed): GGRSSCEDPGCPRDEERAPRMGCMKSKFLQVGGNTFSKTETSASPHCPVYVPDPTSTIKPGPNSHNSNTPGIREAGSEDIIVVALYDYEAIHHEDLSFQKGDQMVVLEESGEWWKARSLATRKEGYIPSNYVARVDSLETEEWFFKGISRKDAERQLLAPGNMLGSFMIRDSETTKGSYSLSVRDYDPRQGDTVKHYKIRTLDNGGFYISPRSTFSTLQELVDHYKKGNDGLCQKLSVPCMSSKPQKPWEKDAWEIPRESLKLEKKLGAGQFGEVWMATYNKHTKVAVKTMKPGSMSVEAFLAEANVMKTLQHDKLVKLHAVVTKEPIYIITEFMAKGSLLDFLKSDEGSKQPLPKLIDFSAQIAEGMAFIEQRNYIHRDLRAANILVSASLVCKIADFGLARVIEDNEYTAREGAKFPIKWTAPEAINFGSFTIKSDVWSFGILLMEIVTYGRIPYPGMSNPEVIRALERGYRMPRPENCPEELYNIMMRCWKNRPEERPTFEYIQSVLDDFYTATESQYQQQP
# [3] = biological target: Glycogen synthase kinase-3 beta (Homo sapiens) (UniProt P49841); assay: Inhibition of human full length GSK-3 beta expressed in baculovirus assessed as substrate phosphorylation using fluorescence-labelled peptides as substrate at 420 uM after 90 mins by microfluidic peptide phosphorylation assay
# Glycogen synthase kinase-3 beta (Homo sapiens), sequence (P49841 whole entry, looked up, the tested form may be a part): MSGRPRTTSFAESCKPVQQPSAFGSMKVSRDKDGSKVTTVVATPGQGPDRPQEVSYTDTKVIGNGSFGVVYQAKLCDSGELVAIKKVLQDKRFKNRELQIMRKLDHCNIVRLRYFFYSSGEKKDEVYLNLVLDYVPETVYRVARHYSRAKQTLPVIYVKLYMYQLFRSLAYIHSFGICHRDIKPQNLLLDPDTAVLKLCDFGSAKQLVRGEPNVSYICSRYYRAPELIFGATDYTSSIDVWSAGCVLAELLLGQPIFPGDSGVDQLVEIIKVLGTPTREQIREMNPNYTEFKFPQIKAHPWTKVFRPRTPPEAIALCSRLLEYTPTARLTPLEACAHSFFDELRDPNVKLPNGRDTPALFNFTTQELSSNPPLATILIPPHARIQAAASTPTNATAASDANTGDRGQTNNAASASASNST
# [4] = biological target: Calcium/calmodulin-dependent protein kinase type II subunit gamma (Homo sapiens) (UniProt Q13555); assay: Inhibition of human CAMK2 gamma catalytic domain expressed in baculovirus assessed as substrate phosphorylation using fluorescence-labelled peptides as substrate at 420 uM after 90 mins by microfluidic peptide phosphorylation assay
# Calcium/calmodulin-dependent protein kinase type II subunit gamma (Homo sapiens), sequence (Q13555 whole entry, the tested form may be a part): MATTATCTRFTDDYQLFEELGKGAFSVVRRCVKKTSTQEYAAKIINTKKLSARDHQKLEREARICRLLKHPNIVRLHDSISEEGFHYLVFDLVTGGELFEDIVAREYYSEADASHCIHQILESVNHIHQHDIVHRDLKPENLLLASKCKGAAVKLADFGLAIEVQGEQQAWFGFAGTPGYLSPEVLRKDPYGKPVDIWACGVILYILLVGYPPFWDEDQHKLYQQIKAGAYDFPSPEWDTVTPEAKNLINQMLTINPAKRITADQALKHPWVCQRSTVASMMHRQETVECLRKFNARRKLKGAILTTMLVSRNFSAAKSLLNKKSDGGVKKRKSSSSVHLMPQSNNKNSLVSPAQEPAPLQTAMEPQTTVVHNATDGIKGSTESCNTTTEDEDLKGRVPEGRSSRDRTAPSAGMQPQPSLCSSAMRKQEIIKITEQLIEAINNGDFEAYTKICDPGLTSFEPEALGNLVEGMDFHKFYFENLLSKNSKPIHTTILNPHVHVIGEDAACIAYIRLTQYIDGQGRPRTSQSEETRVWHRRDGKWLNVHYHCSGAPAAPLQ
# [5] = biological target: Ribosomal protein S6 kinase alpha-3 (Homo sapiens) (UniProt P51812); assay: Inhibition of human full length RSK2 expressed in baculovirus assessed as substrate phosphorylation using fluorescence-labelled peptides as substrate at 95 uM after 90 mins by microfluidic peptide phosphorylation assay
# Ribosomal protein S6 kinase alpha-3 (Homo sapiens), sequence (P51812 whole entry): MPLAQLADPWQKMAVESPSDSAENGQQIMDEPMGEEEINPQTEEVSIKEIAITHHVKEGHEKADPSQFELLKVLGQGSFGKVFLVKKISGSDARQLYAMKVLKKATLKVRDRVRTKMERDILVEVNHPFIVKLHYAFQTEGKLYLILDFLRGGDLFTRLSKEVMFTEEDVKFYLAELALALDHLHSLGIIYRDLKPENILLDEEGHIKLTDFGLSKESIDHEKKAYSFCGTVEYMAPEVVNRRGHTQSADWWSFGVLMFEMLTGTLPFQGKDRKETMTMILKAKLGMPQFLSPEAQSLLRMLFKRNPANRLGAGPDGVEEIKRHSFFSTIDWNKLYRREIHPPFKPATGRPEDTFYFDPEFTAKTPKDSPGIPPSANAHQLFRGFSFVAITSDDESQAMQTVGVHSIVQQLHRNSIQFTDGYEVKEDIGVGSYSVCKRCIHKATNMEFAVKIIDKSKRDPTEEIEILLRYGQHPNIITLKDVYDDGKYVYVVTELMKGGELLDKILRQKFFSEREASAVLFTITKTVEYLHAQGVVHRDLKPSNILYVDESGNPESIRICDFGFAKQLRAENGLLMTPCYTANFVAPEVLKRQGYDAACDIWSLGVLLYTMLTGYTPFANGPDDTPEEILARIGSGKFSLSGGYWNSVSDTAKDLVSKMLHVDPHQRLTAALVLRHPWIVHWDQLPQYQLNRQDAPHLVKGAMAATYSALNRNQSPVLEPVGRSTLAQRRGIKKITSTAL
# [6] = biological target: T1, Inhibitor of nuclear factor kappa-B kinase subunit beta (Homo sapiens) (UniProt O14920); assay: Inhibition of human full length IKK beta expressed in baculovirus assessed as substrate phosphorylation using fluorescence-labelled peptides as substrate at 9 uM after 90 mins by microfluidic peptide phosphorylation assay
# T1 sequence (whole entry): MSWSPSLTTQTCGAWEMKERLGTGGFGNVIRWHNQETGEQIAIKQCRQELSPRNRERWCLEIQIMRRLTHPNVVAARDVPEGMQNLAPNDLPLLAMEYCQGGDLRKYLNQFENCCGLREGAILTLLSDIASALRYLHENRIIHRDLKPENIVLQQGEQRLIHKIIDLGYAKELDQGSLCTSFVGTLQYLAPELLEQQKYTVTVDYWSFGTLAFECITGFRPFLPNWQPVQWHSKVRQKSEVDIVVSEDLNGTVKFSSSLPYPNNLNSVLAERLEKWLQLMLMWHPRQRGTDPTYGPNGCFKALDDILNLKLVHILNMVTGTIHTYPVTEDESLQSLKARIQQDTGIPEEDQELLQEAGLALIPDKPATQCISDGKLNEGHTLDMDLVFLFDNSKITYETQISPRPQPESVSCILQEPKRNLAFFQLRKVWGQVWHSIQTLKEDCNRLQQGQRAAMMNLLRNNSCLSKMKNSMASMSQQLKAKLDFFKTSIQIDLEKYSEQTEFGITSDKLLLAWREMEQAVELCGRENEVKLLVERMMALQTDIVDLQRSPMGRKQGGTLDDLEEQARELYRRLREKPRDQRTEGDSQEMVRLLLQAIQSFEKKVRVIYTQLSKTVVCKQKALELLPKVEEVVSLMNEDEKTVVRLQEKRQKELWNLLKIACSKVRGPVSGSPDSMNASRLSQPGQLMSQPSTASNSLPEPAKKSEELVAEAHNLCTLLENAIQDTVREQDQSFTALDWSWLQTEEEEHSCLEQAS
# [7] = biological target: Ribosomal protein S6 kinase alpha-3 (Homo sapiens) (UniProt P51812); assay: Inhibition of human full length RSK2 expressed in baculovirus assessed as substrate phosphorylation using fluorescence-labelled peptides as substrate at 1000 uM after 90 mins by microfluidic peptide phosphorylation assay
# [8] = biological target: Tyrosine-protein kinase Fyn (Homo sapiens) (UniProt P06241); assay: Inhibition of human full length FYN expressed in baculovirus assessed as substrate phosphorylation using fluorescence-labelled peptides as substrate at 1000 uM after 90 mins by microfluidic peptide phosphorylation assay
# Tyrosine-protein kinase Fyn (Homo sapiens), sequence (P06241 2-537 limits assumed): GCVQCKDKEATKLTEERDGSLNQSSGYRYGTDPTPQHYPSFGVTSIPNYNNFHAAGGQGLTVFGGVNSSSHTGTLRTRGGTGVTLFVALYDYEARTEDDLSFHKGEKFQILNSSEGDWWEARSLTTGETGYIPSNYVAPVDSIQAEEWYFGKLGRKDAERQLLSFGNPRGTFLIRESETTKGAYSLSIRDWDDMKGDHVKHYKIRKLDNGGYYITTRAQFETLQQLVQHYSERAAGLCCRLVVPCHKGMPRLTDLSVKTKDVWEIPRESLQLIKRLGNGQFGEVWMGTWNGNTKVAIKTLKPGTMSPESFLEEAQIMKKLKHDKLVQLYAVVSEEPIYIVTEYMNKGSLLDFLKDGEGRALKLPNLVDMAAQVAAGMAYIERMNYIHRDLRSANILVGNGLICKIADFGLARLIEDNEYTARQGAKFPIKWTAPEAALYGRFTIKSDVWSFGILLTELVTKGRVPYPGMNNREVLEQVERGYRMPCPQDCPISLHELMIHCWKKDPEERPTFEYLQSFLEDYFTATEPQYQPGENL
# [9] = biological target: Insulin-like growth factor 1 receptor (Homo sapiens) (UniProt P08069); assay: Inhibition of human IGF1R catalytic domain expressed in baculovirus assessed as substrate phosphorylation using fluorescence-labelled peptides as substrate at 1000 uM after 90 mins by microfluidic peptide phosphorylation assay
# [10] = biological target: MAP/microtubule affinity-regulating kinase 3 (Homo sapiens) (UniProt P27448); assay: Inhibition of human full length c-TAK1 expressed in Escherichia coli cell assessed as substrate phosphorylation using fluorescence-labelled peptides as substrate at […] after 90 mins by microfluidic peptide phosphorylation assay
# MAP/microtubule affinity-regulating kinase 3 (Homo sapiens), sequence (P27448 whole entry, looked up): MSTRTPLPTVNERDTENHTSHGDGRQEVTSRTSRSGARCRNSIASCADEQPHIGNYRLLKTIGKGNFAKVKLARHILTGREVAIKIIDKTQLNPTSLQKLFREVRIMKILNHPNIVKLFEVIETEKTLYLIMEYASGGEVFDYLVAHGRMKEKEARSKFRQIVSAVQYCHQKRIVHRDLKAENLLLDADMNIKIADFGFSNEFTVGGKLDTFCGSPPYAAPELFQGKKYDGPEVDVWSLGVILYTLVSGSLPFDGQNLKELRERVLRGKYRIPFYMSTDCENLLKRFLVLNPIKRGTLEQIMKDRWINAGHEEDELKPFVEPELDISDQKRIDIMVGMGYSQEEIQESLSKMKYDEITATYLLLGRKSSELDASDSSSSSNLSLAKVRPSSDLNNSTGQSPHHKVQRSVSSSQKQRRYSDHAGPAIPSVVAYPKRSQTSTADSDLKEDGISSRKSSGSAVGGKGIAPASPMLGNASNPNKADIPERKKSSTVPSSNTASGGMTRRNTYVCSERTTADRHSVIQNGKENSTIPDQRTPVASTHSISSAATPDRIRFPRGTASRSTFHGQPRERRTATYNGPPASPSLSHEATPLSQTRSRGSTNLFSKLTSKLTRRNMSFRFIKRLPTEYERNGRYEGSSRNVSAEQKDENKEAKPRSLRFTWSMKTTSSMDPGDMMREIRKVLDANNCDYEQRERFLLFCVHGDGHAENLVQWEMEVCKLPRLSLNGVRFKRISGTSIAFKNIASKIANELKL
# [11] = biological target: T2, Aurora kinase C (Homo sapiens) (UniProt Q9UQB9); assay: Inhibition of human full length AurC expressed in baculovirus assessed as substrate phosphorylation using fluorescence-labelled peptides as substrate at […] after 90 mins by microfluidic peptide phosphorylation assay
# T2 sequence (whole entry): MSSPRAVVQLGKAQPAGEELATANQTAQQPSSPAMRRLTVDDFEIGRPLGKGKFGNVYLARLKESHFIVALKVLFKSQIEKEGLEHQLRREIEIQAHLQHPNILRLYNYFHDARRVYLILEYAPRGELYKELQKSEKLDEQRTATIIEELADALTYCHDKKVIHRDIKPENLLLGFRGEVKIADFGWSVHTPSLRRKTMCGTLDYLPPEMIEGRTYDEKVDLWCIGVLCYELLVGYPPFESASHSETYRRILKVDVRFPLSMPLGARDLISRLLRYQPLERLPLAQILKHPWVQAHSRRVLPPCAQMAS
# [12] = biological target: Tyrosine-protein kinase Lyn (Homo sapiens) (UniProt P07948); assay: Inhibition of human full length LYN expressed in baculovirus assessed as substrate phosphorylation using fluorescence-labelled peptides as substrate at 8 uM after 90 mins by microfluidic peptide phosphorylation assay
# Tyrosine-protein kinase Lyn (Homo sapiens), sequence (P07948 2-512 limits assumed): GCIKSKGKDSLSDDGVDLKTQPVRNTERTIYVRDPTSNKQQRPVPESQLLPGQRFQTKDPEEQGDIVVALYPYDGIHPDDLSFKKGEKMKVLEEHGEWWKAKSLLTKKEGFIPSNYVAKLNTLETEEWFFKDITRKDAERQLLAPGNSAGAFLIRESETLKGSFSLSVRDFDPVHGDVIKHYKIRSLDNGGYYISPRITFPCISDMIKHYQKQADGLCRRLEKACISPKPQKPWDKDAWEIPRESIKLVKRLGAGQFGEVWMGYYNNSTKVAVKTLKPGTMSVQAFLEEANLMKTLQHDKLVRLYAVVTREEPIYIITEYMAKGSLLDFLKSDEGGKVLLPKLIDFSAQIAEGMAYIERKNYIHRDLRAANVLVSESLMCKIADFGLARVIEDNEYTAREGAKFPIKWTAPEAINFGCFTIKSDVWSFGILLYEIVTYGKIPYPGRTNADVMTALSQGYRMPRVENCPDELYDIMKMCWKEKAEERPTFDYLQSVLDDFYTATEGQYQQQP
# [13] = biological target: Tyrosine-protein kinase Fyn (Homo sapiens) (UniProt P06241); conditions: 0.1 uM
# Description: Inhibition of human full length FYN expressed in baculovirus assessed as substrate phosphorylation using fluorescence-labelled peptides as substrate at 0.1 uM after 90 mins by microfluidic peptide phosphorylation assay
# [14] = system: Tyrosine-protein kinase ABL1 (Homo sapiens), P00519 [Q252H]; assay: Inhibition of human truncated ABL Q252H mutant expressed in baculovirus assessed as substrate phosphorylation using fluorescence-labelled peptides as substrate at 0.1 uM after 90 mins by microfluidic peptide phosphorylation assay
# [15] = biological target: Casein kinase I isoform delta (Homo sapiens) (UniProt P48730); assay: Inhibition of human CK1D catalytic domain expressed in Escherichia coli cell assessed as substrate phosphorylation using fluorescence-labelled peptides as substrate at 0.1 uM after 90 mins by microfluidic peptide phosphorylation assay
# Casein kinase I isoform delta (Homo sapiens), sequence (P48730 whole entry, looked up, the tested form may be a part, canonical isoform): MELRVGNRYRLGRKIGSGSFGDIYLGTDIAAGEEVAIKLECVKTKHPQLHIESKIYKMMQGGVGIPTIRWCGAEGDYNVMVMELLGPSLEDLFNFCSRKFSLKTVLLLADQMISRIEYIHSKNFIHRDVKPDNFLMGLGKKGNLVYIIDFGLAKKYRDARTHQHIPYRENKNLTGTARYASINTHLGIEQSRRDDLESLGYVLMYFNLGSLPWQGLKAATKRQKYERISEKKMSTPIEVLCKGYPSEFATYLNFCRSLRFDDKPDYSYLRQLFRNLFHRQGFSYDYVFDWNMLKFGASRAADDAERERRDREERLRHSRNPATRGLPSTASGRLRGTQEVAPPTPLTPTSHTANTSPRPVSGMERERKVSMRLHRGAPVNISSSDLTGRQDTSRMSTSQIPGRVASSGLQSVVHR
compound,measurement,setting,value
NC1(Cc2ccc(Cl)cc2)CCN(c2ncnc3[nH]ccc23)CC1,inhibition,[1],0.5%
Clc1ccc(C2(c3ccc(-c4ncnc5[nH]cnc45)cc3)CCNCC2)cc1,inhibition,[2],35%
c1nc(N2CCOCC2)c2nc[nH]c2n1,inhibition,[3],90%
same,inhibition,[4],42%
NCCc1ccc(-c2ncnc3[nH]cnc23)cc1,inhibition,[5],87.5%
NCC1CN(c2ncnc3[nH]c4cnccc4c23)CCO1 (stereo not given),inhibition,[6],83%
c1cnc2[nH]ccc2c1,inhibition,[7],68.5%
same,inhibition,[8],24%
same,inhibition,[9],51.5%
COC(=O)c1cnc(Nc2cnc(C#N)cn2)cc1NCC1CCNCC1,inhibition,[10],0.5%
same,inhibition,[11],7.5%
NCC1CCN(c2ncnc3[nH]ccc23)CC1,inhibition,[12],51%
C[C@H](CN(C)C)Oc1nc(Nc2cc3cccc(Cl)c3cn2)cnc1C#N,inhibition,[13],0%
same,inhibition,[14],4%
same,inhibition,[15],9.5%
